Earlier results on one compound are cited in patent US12383538B2, “Use of mTOR inhibitors for prevention of intestinal polyp growth and cancer” (priority 2013, dated 2025).

The test system of the series is colorectal adenomas. Conditions: adults with FAP, 6-month trial.

As to `Cc1ccc(-c2cc(C(F)(F)F)nn2-c2ccc(S(N)(=O)=O)cc2)cc1` [celecoxib], the tolerability result is reported as “well tolerated”.
